Where “and” joins values, the source holds several entries; their conditions need not be identical. Equal entries are not always repeated. Non-standard residues stand in square brackets, D forms with d. pGlu = O=C1CC[C@@H](C(=O)O)N1
System: peripheral blood mononuclear cells obtained from children
Test: IFNγ ELISpot PBMC assay after oral wheat bread challenge (Examples 1-2)
Type: cell-based, human
Description: An oral wheat bread challenge was conducted in DQ2.5+ children and adolescents having Celiac disease. The age ranges were 3-5, 6-10 and 11-18 years of age. An ELISpot peripheral blood mononucleated cell (PBMC) assay was performed to measure the level of IFNγ released by the PBMCs after being contacted with peptide 1, peptide 2, peptide 3, or a combination thereof. The identities of peptides 1, 2, and 3 are shown below.
The values the rows starting from “Blank (SFU)” and ending at “Pept-1/2/3 (150)” are all spot forming unit (SFU) values. The values in the parentheses in the first column are the concentration of each peptide in micrograms that were added to the PBMCs (e.g., Pept-1 50=50 micrograms of Peptide 1, Pept-1/2/3 50=50 micrograms of each of Peptide 1, Peptide 2, and Peptide 3). Pept-1=Peptide 1, Pept-2=Peptide 2, Pept-3=Peptide 3, the amino acid identities of which are mentioned above. D-Gli=deamidated gliadin. WT-Gli=wild-type gliadin. D-Glut=deamidated gluten. WT-Glut=wild-type gluten.
IFNγ ELISpot responses in 9 older children (11-17 yo) and 6 younger children (3-10 yo) were stimulated by the mixture of peptides 1, 2, and 3 described in Example 1 (each peptide at a concentration of 25 ug/mL) or stimulated by deamidated gliadin (100 ug/mL) after 3-day wheat challenge (r2=0.8, p<0.0001). The ELISpot responses were similar using either the peptide mixture of the deamidated gliadin (FIG. 1).

EQPFPQPEQPFPWQP ([pGlu]QPFPQPEQPFPWQP-NH2; SMILES NC(=O)CC[C@H](NC(=O)[C@H](Cc1c[nH]c2ccccc12)NC(=O)[C@@H]1CCCN1C(=O)[C@H](Cc1ccccc1)NC(=O)[C@@H]1CCCN1C(=O)[C@H](CCC(N)=O)NC(=O)[C@H](CCC(=O)O)NC(=O)[C@@H]1CCCN1C(=O)[C@H](CCC(N)=O)NC(=O)[C@@H]1CCCN1C(=O)[C@H](Cc1ccccc1)NC(=O)[C@@H]1CCCN1C(=O)[C@H](CCC(N)=O)NC(=O)[C@@H]1CCC(=O)N1)C(=O)N1CCC[C@H]1C(N)=O) [Peptide 2]
most active peptides in gliadin for children: most active | SFU, IFNγ ELISpot (Subject A, 5.0 × 10^5 cells per well, 50 micrograms, listed as Pept-2): 4 SFU and 3 SFU | SFU, IFNγ ELISpot (Subject A, 5.0 × 10^5 cells per well, 100 micrograms, listed as Pept-2): 5 SFU and 3 SFU | SFU, IFNγ ELISpot (Subject B, 5.0 × 10^5 cells per well, 25 micrograms, listed as Pept-2): 4 SFU and 6 SFU | SFU, IFNγ ELISpot (Subject B, 5.0 × 10^5 cells per well, 50 micrograms, listed as Pept-2): 7 SFU and 8 SFU | SFU, IFNγ ELISpot (Subject C, 5.0 × 10^5 cells per well, 50 micrograms): 4 SFU | SFU, IFNγ ELISpot (Subject D, 4.0 × 10^5 cells per well, 25 micrograms, listed as Pept-2): 17 SFU and 30 SFU | SFU, IFNγ ELISpot (Subject D, 4.0 × 10^5 cells per well, 50 micrograms, listed as Pept-2): 29 SFU and 32 SFU | SFU, IFNγ ELISpot (Subject E, 5.0 × 10^5 cells per well, 25 micrograms, listed as Pept-2): 55 SFU and 45 SFU | SFU, IFNγ ELISpot (Subject E, 5.0 × 10^5 cells per well, 50 micrograms, listed as Pept-2): 45 SFU and 43 SFU | SFU, IFNγ ELISpot (Subject E, 5.0 × 10^5 cells per well, 100 micrograms, listed as Pept-2): 67 SFU and 44 SFU | SFU, IFNγ ELISpot (Subject F, 5.0 × 10^5 cells per well, 25 micrograms, listed as Pept-2): 44 SFU and 59 SFU | SFU, IFNγ ELISpot (Subject F, 5.0 × 10^5 cells per well, 50 micrograms, listed as Pept-2): 64 SFU and 105 SFU | SFU, IFNγ ELISpot (Subject F, 5.0 × 10^5 cells per well, 100 micrograms, listed as Pept-2): 41 SFU and 59 SFU | SFU, IFNγ ELISpot (Subject G, 4.0 × 10^5 cells per well, 25 micrograms): 7 SFU | SFU, IFNγ ELISpot (Subject G, 4.0 × 10^5 cells per well, 100 micrograms, listed as Pept-2): 5 SFU and 9 SFU | SFU, IFNγ ELISpot (Subject I, 5.0 × 10^5 cells per well, 25 micrograms): 7 SFU | SFU, IFNγ ELISpot (Subject I, 5.0 × 10^5 cells per well, 50 micrograms, listed as Pept-2): 5 SFU and 6 SFU | SFU, IFNγ ELISpot (Subject J, 5.0 × 10^5 cells per well, 25 micrograms, listed as Pept-2): 85 SFU and 98 SFU | SFU, IFNγ ELISpot (Subject J, 5.0 × 10^5 cells per well, 50 micrograms, listed as Pept-2): 107 SFU and 83 SFU | SFU, IFNγ ELISpot (Subject J, 5.0 × 10^5 cells per well, 100 micrograms, listed as Pept-2): 81 SFU and 90 SFU | SFU, IFNγ ELISpot (Subject K, 3.2 × 10^5 cells per well, 25 micrograms, listed as Pept-2): 17 SFU and 22 SFU | SFU, IFNγ ELISpot (Subject K, 3.2 × 10^5 cells per well, 50 micrograms, listed as Pept-2): 19 SFU and 18 SFU | SFU, IFNγ ELISpot (Subject K, 3.2 × 10^5 cells per well, 100 micrograms, listed as Pept-2): 23 SFU and 15 SFU | SFU, IFNγ ELISpot (Subject L, 3.5 × 10^5 cells per well, 25 micrograms, listed as Pept-2): 5 SFU and 4 SFU | SFU, IFNγ ELISpot (Subject L, 3.5 × 10^5 cells per well, 100 micrograms, listed as Pept-2): 2 SFU and 4 SFU | SFU, IFNγ ELISpot (Subject M, 2.3 × 10^5 cells per well, 25 micrograms, listed as Pept-2): 28 SFU and 27 SFU | SFU, IFNγ ELISpot (Subject M, 2.3 × 10^5 cells per well, 50 micrograms, listed as Pept-2): 26 SFU and 29 SFU | SFU, IFNγ ELISpot (Subject M, 2.3 × 10^5 cells per well, 100 micrograms, listed as Pept-2): 32 SFU and 24 SFU | SFU, IFNγ ELISpot (Subject N, 2.4 × 10^5 cells per well, 100 micrograms, listed as Pept-2): 4 SFU and 7 SFU | SFU, IFNγ ELISpot (Subject P, 3.0 × 10^5 cells per well, 0.5 micrograms, listed as Pept-2): 10 SFU and 8 SFU | SFU, IFNγ ELISpot (Subject P, 3.0 × 10^5 cells per well, 1 micrograms, listed as Pept-2): 18 SFU and 11 SFU | SFU, IFNγ ELISpot (Subject P, 3.0 × 10^5 cells per well, 5 micrograms, listed as Pept-2): 19 SFU and 15 SFU | SFU, IFNγ ELISpot (Subject Q, 3.0 × 10^5 cells per well, 0.5 micrograms, listed as Pept-2): 44 SFU and 51 SFU | SFU, IFNγ ELISpot (Subject Q, 3.0 × 10^5 cells per well, 1 micrograms, listed as Pept-2): 31 SFU and 41 SFU | SFU, IFNγ ELISpot (Subject Q, 3.0 × 10^5 cells per well, 2.5 micrograms, listed as Pept-2): 44 SFU and 51 SFU | SFU, IFNγ ELISpot (Subject Q, 3.0 × 10^5 cells per well, 5 micrograms, listed as Pept-2): 30 SFU | SFU, IFNγ ELISpot (Subject R, 3.0 × 10^5 cells per well, 0.1 micrograms, listed as Pept-2): 18 SFU and 20 SFU | SFU, IFNγ ELISpot (Subject R, 3.0 × 10^5 cells per well, 0.5 micrograms, listed as Pept-2): 16 SFU and 14 SFU | SFU, IFNγ ELISpot (Subject R, 3.0 × 10^5 cells per well, 1 micrograms, listed as Pept-2): 15 SFU and 11 SFU | SFU, IFNγ ELISpot (Subject R, 3.0 × 10^5 cells per well, 5 micrograms, listed as Pept-2): 16 SFU | SFU, IFNγ ELISpot (Subject S, 3.0 × 10^5 cells per well, 0.5 micrograms, listed as Pept-2): 2 SFU and 1 SFU | SFU, IFNγ ELISpot (Subject S, 3.0 × 10^5 cells per well, 1 micrograms, listed as Pept-2): 5 SFU and 3 SFU | SFU, IFNγ ELISpot (Subject S, 3.0 × 10^5 cells per well, 2.5 micrograms, listed as Pept-2): 2 SFU and 3 SFU | SFU, IFNγ ELISpot (Subject S, 3.0 × 10^5 cells per well, 5 micrograms, listed as Pept-2): 5 SFU | SFU, IFNγ ELISpot (Subject T, 3.0 × 10^5 cells per well, 0.1 micrograms, listed as Pept-2): 33 SFU and 47 SFU | SFU, IFNγ ELISpot (Subject T, 3.0 × 10^5 cells per well, 0.5 micrograms, listed as Pept-2): 34 SFU and 39 SFU | SFU, IFNγ ELISpot (Subject T, 3.0 × 10^5 cells per well, 1 micrograms, listed as Pept-2): 41 SFU and 51 SFU | SFU, IFNγ ELISpot (Subject T, 3.0 × 10^5 cells per well, 2.5 micrograms, listed as Pept-2): 49 SFU and 56 SFU | SFU, IFNγ ELISpot (Subject T, 3.0 × 10^5 cells per well, 5 micrograms, listed as Pept-2): 68 SFU | SFU, IFNγ ELISpot (Subject U, 3.0 × 10^5 cells per well, 0.1 micrograms, listed as Pept-2): 8 SFU and 6 SFU | SFU, IFNγ ELISpot (Subject U, 3.0 × 10^5 cells per well, 0.5 micrograms, listed as Pept-2): 8 SFU and 12 SFU | SFU, IFNγ ELISpot (Subject U, 3.0 × 10^5 cells per well, 1 micrograms, listed as Pept-2): 13 SFU and 15 SFU | SFU, IFNγ ELISpot (Subject U, 3.0 × 10^5 cells per well, 2.5 micrograms, listed as Pept-2): 26 SFU and 33 SFU | SFU, IFNγ ELISpot (Subject U, 3.0 × 10^5 cells per well, 5 micrograms, listed as Pept-2): 28 SFU | T cell response in PBMC samples from children after gluten challenge (general increase in SFU in each child, Tables 2-5): induce a T cell response

— patent US20170232083A1, “METHODS OF DIAGNOSIS AND TREATMENT OF CELIAC DISEASE IN CHILDREN” (priority 2014, published 2017)
